Data from US9796700B2 (Celgene CAR LLC, priority 2013, dated 2017).
Read-outs that look alike come from different tables or passages of the source.

Tests used:
Erk1 = Erk1 (Homo sapiens (Human), UniProt P27361); assay: Protein Mass Modification Assay (intact protein MALDI); format: binding
In short: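 Percent covalent modification comes from the intact-protein MALDI centroid mass shift, treated versus control, divided by compound MW. Before analysis, human Erk1 was exposed to compound at 10-fold excess over protein for 60 min at room temperature.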

MEK1 activated ERK1 = MEK1 activated ERK1 (Homo sapiens (Human), UniProt P27361); assay: Omnia continuous-read kinase assay for potency against MEK1 activated ERK1; format: biochemical
Sequence of MEK1 activated ERK1 (P27361 whole entry): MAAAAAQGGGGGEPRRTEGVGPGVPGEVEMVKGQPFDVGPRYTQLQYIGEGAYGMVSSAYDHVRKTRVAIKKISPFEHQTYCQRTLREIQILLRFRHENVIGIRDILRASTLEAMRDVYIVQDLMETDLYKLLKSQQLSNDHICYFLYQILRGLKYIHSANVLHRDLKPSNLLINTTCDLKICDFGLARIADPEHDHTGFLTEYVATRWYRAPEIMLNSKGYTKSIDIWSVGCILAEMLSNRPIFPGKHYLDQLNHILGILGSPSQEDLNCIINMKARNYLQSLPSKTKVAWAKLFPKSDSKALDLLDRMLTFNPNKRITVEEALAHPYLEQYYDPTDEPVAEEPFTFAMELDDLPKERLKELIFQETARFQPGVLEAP
Description: Omnia Assay Protocol for Potency Assessment Against MEK1 Activated ERK1:
The protocol below describes continuous-read kinase assays to measure potency of compounds against activated ERK1 enzyme. The mechanics of the assay platform are best described by the vendor (Invitrogen, Carlsbad, Calif.) on their website at the following URL: invitrogen.com/site/us/en/home.html.
Briefly, a 1.25× stock of ERK1 enzyme (14-439-K) from Millipore (Billerica, Mass.), 5×ATP (AS001A) and ST17-Sox conjugated peptide substrate (KNZ1171C) were prepared in 1× kinase reaction buffer consisting of 20 mM Tris, pH 7.5, 5 mM MgCl2, 1 mM EGTA, 5 mM β-glycerophosphate, 5% glycerol (10× stock, KB002A) and 0.2 mM DTT. 10 μL of ATP/ST17-sox peptide substrate mix was combined with 0.5 μL volume of 100% DMSO and serially diluted compounds were prepared in 100% DMSO in a Corning (#3574) 384-well, white, non-binding surface microtiter plate (Corning, N.Y.). Kinase reactions were started with the addition of 40 μL of ERK1 solution and monitored every 71 seconds for 30-240 minutes at λex360/λem485 in a Synergy plate reader from BioTek (Winooski, Vt.). At the conclusion of each assay, progress curves from each well were examined for linear reaction kinetics and fit statistics (R^2, 95% confidence interval, absolute sum of squares). Initial velocity (0 minutes to ˜30+ minutes) from each reaction was determined from the slope of a plot of relative fluorescence units vs time (minutes or seconds) and then plotted against inhibitor concentration to estimate ^AppIC50 from log [Inhibitor] vs Response, Variable Slope model in GraphPad Prism from GraphPad Software (San Diego, Calif.).
[Reagent] used in optimized protocol:
[ERK1]=4 nM, [ATP]=50 μM, [ST17-Sox]=10 μM (ATP ^appKM 48 μM)
The results of this assay show the degree of inhibition of ERK activity, which is a direct measurement of inhibition of ERK activity. Results from this assay are reported in Table A under the column “ERK1 Omnia WT ATP KM IC50 (nM).”

[1] = MEK1 activated ERK1, WT, ATP at KM

Sequence of Erk1 (P27361 whole entry, looked up): as the sequence (P27361 whole entry) above

Row | Compound | ERK1 Mass Mod (%) (Erk1) | IC50 (MEK1 activated ERK1; [1]) | IC50 (MEK1 activated ERK1; read-out: ERK1 Omnia WT ATP KM IC50)
1 | CC(C)=CC(=O)c1ccccc1Oc1nc(Nc2cc(C(N)=O)ccc2C)ncc1Cl [Compound I-223, 3-((5-chloro-4-(2-(3-methylbut-2-enoyl)phenoxy)pyrimidin-2-yl)amino)-4-methylbenzamide] | E (provided a mass modification of ≧70%) | > 1000 nM | 
2 | C=C(F)C(=O)Nc1ccccc1Nc1nc(N[C@H]2CCCN(C(C)=O)C2)ncc1C(F)(F)F [Compound I-55, (S)—N-(2-((2-((1-Acetylpiperidin-3-yl)amino)-5-(trifluoromethyl)pyrimidin-4-yl)amino)phenyl)-2-fluoroacrylamide] | E (provided a mass modification of ≧70%) | < 100 nM | 
3 | C=CC(=O)Nc1cc(OC)ccc1Nc1nc(Nc2cc(OC)ncc2C)ncc1C(F)(F)F [Compound I-284, N-(5-Methoxy-2-((2-((2-methoxy-5-methylpyridin-4-yl)amino)-5-(trifluoromethyl)pyrimidin-4-yl)amino)phenyl)acrylamide] | E (provided a mass modification of ≧70%) | < 100 nM | 
4 | C=CC(=O)Nc1ccccc1Nc1nc(Nc2cc(C(=O)NOC)ccc2C)ncc1Cl [Compound I-191, 3-((4-((2-acrylamidophenyl)amino)-5-chloropyrimidin-2-yl)amino)-N-methoxy-4-methylbenzamide] | E (provided a mass modification of ≧70%) | < 100 nM | 
5 | C=CC(=O)Nc1cc(C)ccc1Nc1nc(Nc2cc(Cl)nc(OC)c2)ncc1Cl [Compound I-244, N-(2-((5-chloro-2-((2-chloro-6-methoxypyridin-4-yl)amino)pyrimidin-4-yl)amino)-5-methylphenyl)acrylamide] | E (provided a mass modification of ≧70%) | > 1000 nM | 
6 | C=CC(=O)Nc1cc(OC)ccc1Nc1nc(N[C@H]2CCCN(C(=O)CO)C2)ncc1C(F)(F)F [Compound I-64, (S)—N-(2-((2-((1-(2-Hydroxyacetyl)piperidin-3-yl)amino)-5-(trifluoromethyl)pyrimidin-4-yl)amino)-5-methoxyphenyl)acrylamide] | E (provided a mass modification of ≧70%) | < 100 nM | 
7 | C=CC(=O)Nc1cc(F)ccc1Nc1nc(Nc2cc(OC)ncc2C)ncc1C(F)(F)F [Compound I-322, N-(5-fluoro-2-((2-((2-methoxy-5-methylpyridin-4-yl)amino)-5-(trifluoromethyl)pyrimidin-4-yl)amino)phenyl)acrylamide] | E (provided a mass modification of ≧70%) | < 100 nM | 
8 | C=CC(=O)Nc1cc(C)ccc1Nc1nc(Nc2nc(OC)ccc2Cl)ncc1C(F)(F)F [Compound I-360, N-(2-((2-((3-chloro-6-methoxypyridin-2-yl)amino)-5-(trifluoromethyl)pyrimidin-4-yl)amino)-5-methylphenyl)acrylamide] | E (provided a mass modification of ≧70%) | > 1000 nM | 
9 | CCC(=O)Nc1ccccc1Nc1nc(Nc2ccc3c(c2)CCCC(=O)N3CCCN)ncc1Cl [Compound I-314, N-(2-((2-((1-(3-aminopropyl)-2-oxo-2,3,4,5-tetrahydro-1H-benzo[b]azepin-7-yl)amino)-5-chloropyrimidin-4-yl)amino)phenyl)propionamide] | G (proived a mass modification ≦30%) | < 100 nM | 
10 | C=CC(=O)N[C@H]1CCC[C@@H]1Nc1nc(Nc2cc(C(N)=O)ccc2C)ncc1Cl [Compound I-215, 3-((4-(((1 S,2S)-2-acrylamidocyclopentyl)amino)-5-chloropyrimidin-2-yl)amino)-4-methylbenzamide] | G (proived a mass modification ≦30%) | > 1000 nM | 
11 | C=CC(=O)Nc1cc(C)ccc1Nc1nc(N[C@H]2CCCN(S(=O)(=O)C=C)C2)ncc1C(F)(F)F [Compound I-277, (S)—N-(5-Methyl-2-((5-(trifluoromethyl)-2-((1-(vinylsulfonyl)piperidin-3-yl)amino)pyrimidin-4-yl)amino)phenyl)acrylamide] | E (provided a mass modification of ≧70%) | > 1000 nM | 
12 | C=CC(=O)Nc1cc(OC)ccc1Nc1nc(Nc2ccc(N3CCC[C@H]3CO)cc2OC)ncc1Cl [Compound I-159, (S)—N-(2-((5-chloro-2-((4-(2-(hydroxymethyl)pyrrolidin-1-yl)-2-methoxyphenyl)amino)pyrimidin-4-yl)amino)-5-methoxyphenyl)acrylamide] | F (provided a mass modification of 31-69%) | > 1000 nM | 
13 | C=CC(=O)Nc1cc(OC)ccc1Nc1nc(Nc2ccc(-n3ccnc3)cc2C#N)ncc1Cl [Compound I-157, N-(2-((5-chloro-2-((2-cyano-4-(1H-imidazol-1-yl)phenyl)amino)pyrimidin-4-yl)amino)-5-methoxyphenyl)acrylamide] | F (provided a mass modification of 31-69%) | > 1000 nM | 
14 | C=CC(=O)Nc1ccccc1Nc1nc(N[C@H]2CCCN(C(=O)CC)C2)ncc1Cl [Compound I-131, (S)—N-(2-((5-chloro-2-((1-propionylpiperidin-3-yl)amino)pyrimidin-4-yl)amino)phenyl)acrylamide] | E (provided a mass modification of ≧70%) | < 100 nM | 
15 | C#CCOc1cc(C)c(Nc2ncc(C(F)(F)F)c(Nc3ccc(C)cc3NC(=O)C=C)n2)cc1C(N)=O [Compound I-362, 5-((4-((2-acrylamido-4-methylphenyl)amino)-5-(trifluoromethyl)pyrimidin-2-yl)amino)-4-methyl-2-(prop-2-yn-1-yloxy)benzamide] | E (provided a mass modification of ≧70%) | > 1000 nM | 
16 | C=CC(=O)Nc1cc(OC)ccc1Nc1nc(Nc2ccc(N3CCNCC3)cc2OC)ncc1Cl [Compound I-162, N-(2-((5-chloro-2-((2-methoxy-4-(piperazin-1-yl)phenyl)amino)pyrimidin-4-yl)amino)-5-methoxyphenyl)acrylamide] | E (provided a mass modification of ≧70%) | > 1000 nM | 
17 | C=C(C)S(=O)(=O)Nc1cc(F)ccc1Nc1nc(Nc2cc(C(C)=O)ccc2C)ncc1Cl [Compound I-243, N-(2-((2-((5-acetyl-2-methylphenyl)amino)-5-chloropyrimidin-4-yl)amino)-5-fluorophenyl)prop-1-ene-2-sulfonamide] | G (key: E: provided a mass modification of ≧70%; F: provided a mass modification of 31-69%; G: proived a mass modification ≦30%) |  | < 100 nM
18 | CC(C)=CC(=O)c1ccccc1Oc1nc(Nc2ccc(F)cc2C)ncc1Cl [Compound I-222, 1-(2-((5-chloro-2-((4-fluoro-2-methylphenyl)amino)pyrimidin-4-yl)oxy)phenyl)-3-methylbut-2-en-1-one] | G (proived a mass modification ≦30%) | > 1000 nM | 
19 | C=CC(=O)Nc1ccccc1Nc1nc(NC2CCN(S(C)(=O)=O)CC2)ncc1C(F)(F)F [Compound I-13, N-(2-((2-((1-(methylsulfonyl)piperidin-4-yl)amino)-5-(trifluoromethyl)pyrimidin-4-yl)amino)phenyl)acrylamide] | E (provided a mass modification of ≧70%) | < 100 nM | 
20 | C=CC(=O)Nc1cc(OC)ccc1Oc1nc(Nc2ccc(N3CCC[C@H]3C(N)=O)cc2OC)ncc1C(N)=O [Compound I-265, (S)-4-(2-acrylamido-4-methoxyphenoxy)-2-((4-(2-carbamoylpyrrolidin-1-yl)-2-methoxyphenyl)amino)pyrimidine-5-carboxamide] | F (provided a mass modification of 31-69%) | > 1000 nM | 
21 | C=CC(=O)Nc1cc(C)ccc1Nc1nc(NC2CCC(=O)CC2)ncc1C(F)(F)F [Compound I-38, N-(5-Methyl-2-((2-((4-oxocyclohexyl)amino)-5-(trifluoromethyl)pyrimidin-4-yl)amino)phenyl)acrylamide] | E (provided a mass modification of ≧70%) | < 100 nM | 
22 | C=CC(=O)Nc1ccccc1Nc1nc(Nc2cc(C(N)=O)ccc2OC)ncc1C(F)(F)F [Compound I-70, 3-((4-((2-Acrylamidophenyl)amino)-5-(trifluoromethyl)pyrimidin-2-yl)amino)-4-methoxybenzamide] | E (provided a mass modification of ≧70%) | < 100 nM | 
23 | C=CC(=O)Nc1ccccc1Nc1nc(NC2CCN(C=O)CC2)ncc1Cl [Compound I-124, N-(2-((5-chloro-2-((1-formylpiperidin-4-yl)amino)pyrimidin-4-yl)amino)phenyl) acrylamide] | E (provided a mass modification of ≧70%) | < 100 nM | 
